# Source: patent publication US20110009628A1, “Compounds and Compositions for Modulating Lipid Levels and Methods of Preparing Same” (priority 2009, published 2011)
# Counter-ions that a name gives are not always drawn. Marks after values point to notes of the source that are not given here.
# Columns and labels:
# [1] = test system: LDLR protein expression in HepG2 cells; assay: Western blot of LDLR protein in HepG2 cells, Compounds 162 and 163; assay type: cell-based, human; details: 20 μM, 16 or 24 hours, FIG. 7
# Method: FIG. 7 is a Western blot analysis of LDLR and PCSK9 expression in HepG2 cells. HepG2 cells seeded in 12-well culture plates were cultured in 0.5% FBS MEM overnight. Compounds 162 and 163 at 20 μM were added to cells for the indicated times. Untreated and treated cells were harvested at the same indicated time points. Total cell lysates were isolated and 50 μg per sample was analyzed for LDLR and PCSK9 protein abundance by western blotting. The membrane was reprobed with anti-actin antibody to examine the equal loading of cell lysates.
# Chicken anti-LDLR was purchased from Abcam. HepG2 cells cultured in 60-mm dishes were incubated overnight in medium containing 0.5% fetal bovine serum prior to the addition of compounds at 20 μM concentration. After 16 or 24 hours of treatment, total cell lysate was isolated and 50 μg of protein was separated on SDS-PAGE and transferred to nitrocellulose membrane for immunoblotting with anti-LDLR.
# Hyperlipidemic Hamsters = assay: Serum lipids and biochemistry in hyperlipidemic hamsters on high fat high cholesterol diet, 2 weeks oral Compound 162; assay type: in vivo, Golden Syrian Hamsters; details: for ALT / AST / BUN / Bil-T / Creatinine / Glucose / HDL-C / TC / TG: serum, HFHC feeding, n = 10
# Method: Male hamsters were fed a cholesterol-enriched diet for 14 days before the daily oral feeding of Compound 162 at 30, 60, and 100 mg/kg, or an equal volume of vehicle for 2-weeks. Serum samples were collected after 2 weeks of treatment and analyzed for TC, TG, and HDL-C. The data shown are mean±SEM of 10 hamsters per group (* p<0.05, ** p<0.01 compared to untreated control group).
# Male Golden Syrian Hamsters were used as an animal model to examine the in vivo effects of Compound 162 in plasma lipid levels. In one experiment, 40 male hamsters under a high fat and high cholesterol diet were divided into 4 groups of 10 hamsters per group. Group 1 was given vehicle only and groups 2-4 were given Compound 162 at 30, 60, and 100 mg/kg/day by an orogastric tube for 2 weeks. At the end of treatment, hamsters were sacrificed and blood and sera were collected to measure lipid levels and several critical parameters of liver function and kidney function.
# [2] = test system: cholesterol 7α-hydroxylase (CYP7A) mRNA; assay: Liver cholesterol 7α-hydroxylase (CYP7A) mRNA in treated hamsters, real-time PCR; assay type: in vivo, hamster; details: 100 mg/kg, 2 weeks, p<0.01
# Excerpt: The conversion of cholesterol to bile acids by the liver and their subsequent excretion in the feces represent a major route for the elimination of sterol from the body. The cholesterol 7α-hydroxylase is the first and rate-limiting enzyme in the bile acid biosynthetic pathway. The measurement of the mRNA expression level of cholesterol 7α-hydroxylase (CYP7A) is widely used as a means to monitor bile acid synthesis in liver. To assess the effect of Compound 162 on liver bile acid synthesis, the mRNA levels of CYP7A were measured in vehicle and liver samples from hamsters treated with 100 mg/kg Compound 162 by real-time PCR as described above.
# in vivo = assay: in vivo; design: species or system Golden Syrian hamsters; details: male, Golden Syrian, hamster, po
# Method: For testing the efficacy of Compound 141 (phosphate salt of Compound 127) or its enantiomers (Compound 162/Compound 163) the following suspension formulation procedure was developed to make 100 ml of Compound 141 in suspension at 10 mg/ml concentration in 0.1 M tartaric buffer pH. 3 containing 0.5% hydroxypropylcellulose H-type (HPC-H):
# Step 1: 1.50 g L-(+)-tartaric acid was dissolved in 100 mL water to prepare a tartaric acid solution. The solution was adjusted to pH 3 with 1.2 mL 5N NaOH solution to provide the tartaric acid buffer (100 mM). Step 2: 0.5 g HPC-H powder was added to 10 mL tartaric acid buffer (100 mM) at 50° C. The slurry was stirred for 30 minutes, and then diluted with 90 mL tartaric acid buffer (100 mM) at room temperature to provide 0.5% HPC-H. Agitation was continued until all particles were dissolved and the solution was completely free of gels. Step 3: 1.20 g Compound 141 (or Compound 162 or Compound 163) and 1.20 g mannitol were mixed and ground through a 120 mesh sieve, then the mixture was ground slightly again. The mixture was dispersed in 100 mL 0.5% HPC-H-L-(+)-Tartaric acid buffer (pH=3), then stirred until the drug dispersed evenly. The final pH was 2.6. All the above procedures were completed at room temperature (˜25° C.). The final concentration of Compound 141 was 10 mg/ml after correction of the salt weight.
# The pharmacokinetic profile and bioavailability of Compound 141 (phosphate salt of Compound 127) in male Wistar rats following single intravenous (iv) and oral administration (p.o.) were measured according to the procedures of Example 4 and are summarized in Table 11. The pharmacokinetic profile of Compound 162 in male Golden Syrian masters following oral administration (pox) is summarized in Table 12.
# [3] = 100 mg/kg, 2 weeks, hamsters, FIG. 8
compound,measurement,setting,value
"COc1cc2c(cc1OC)C1Cc3ccc(OC)c(OS(=O)(=O)c4cccc(F)c4)c3CN1CC2 (single isomer, unassigned) [Compound 162, 2,3,10-Trimethoxy-5,6,7,8,13,13a-hexahydroisoquinolino[2,1-b]isoquinolin-9-yl 3-fluorobenzenesulfonate phosphate Salt (Enantiomer having positive optical rotation)]",LDLR mRNA and protein expression,[1],significantly enhance
same,increase of HDL-C,Hyperlipidemic Hamsters; [3],21%
same,reduction of serum TC,Hyperlipidemic Hamsters; [3],46%
same,reduction of serum TG,Hyperlipidemic Hamsters; [3],63.7%
same,"VLDL-C, LDL-C in pooled serum (HPLC lipoprotein profile)","Hyperlipidemic Hamsters; 30, 60, 100 mg/kg/day, hamsters fed the HFHC diet, FIGS. 9A and 9B",dose-dependently lowered
same,Blood glucose level,"Hyperlipidemic Hamsters; hamsters, 2 weeks",not changed
same,kidney function,"Hyperlipidemic Hamsters; hamsters, 2 weeks",improved
same,serum levels of AST and ALT versus control group,"Hyperlipidemic Hamsters; hamsters, 2 weeks",statistically lower
same,ALT,"Hyperlipidemic Hamsters; 30 mkg, 2 weeks",441 ± 401 IU/L
same,AST,"Hyperlipidemic Hamsters; 30 mkg, 2 weeks",202.0 ± 135 IU/L
same,BUN,"Hyperlipidemic Hamsters; 30 mkg, 2 weeks",4.5 ± 0.9 mmol/L
same,Bil-T,"Hyperlipidemic Hamsters; 30 mkg, 2 weeks",0.6 ± 1.0 µmol/L
same,Creatinine,"Hyperlipidemic Hamsters; 30 mkg, 2 weeks",17.8 ± 6.1* umol/L
same,Glucose,"Hyperlipidemic Hamsters; 30 mkg, 2 weeks",3.8 ± 0.8 mmol/L
same,HDL-C,"Hyperlipidemic Hamsters; 30 mkg, 2 weeks",3.9 ± 0.5 mmol/L
same,TC,"Hyperlipidemic Hamsters; 30 mkg, 2 weeks",19.0 ± 10.1 mmol/L
same,TG,"Hyperlipidemic Hamsters; 30 mkg, 2 weeks",9.4 ± 9.2 mmol/L
same,ALT,"Hyperlipidemic Hamsters; 60 mkg, 2 weeks",353 ± 250 IU/L
same,AST,"Hyperlipidemic Hamsters; 60 mkg, 2 weeks",151.5 ± 61 IU/L
same,BUN,"Hyperlipidemic Hamsters; 60 mkg, 2 weeks",5.0 ± 0.7 mmol/L
same,Bil-T,"Hyperlipidemic Hamsters; 60 mkg, 2 weeks",0.3 ± 0.3* umol/L
same,Creatinine,"Hyperlipidemic Hamsters; 60 mkg, 2 weeks",15.7 ± 4.2** umol/L
same,Glucose,"Hyperlipidemic Hamsters; 60 mkg, 2 weeks",5.0 ± 1.0 mmol/L
same,HDL-C,"Hyperlipidemic Hamsters; 60 mkg, 2 weeks",3.9 ± 0.5 mmol/L
same,TC,"Hyperlipidemic Hamsters; 60 mkg, 2 weeks",16.9 ± 8.7* mmol/L
same,TG,"Hyperlipidemic Hamsters; 60 mkg, 2 weeks",7.6 ± 8.1* mmol/L
same,ALT,"Hyperlipidemic Hamsters; 100 mkg, 2 weeks",376 ± 262 IU/L
same,AST,"Hyperlipidemic Hamsters; 100 mkg, 2 weeks",150.4 ± 42 IU/L
same,BUN,"Hyperlipidemic Hamsters; 100 mkg, 2 weeks",4.8 ± 0.7 mmol/L
same,Bil-T,"Hyperlipidemic Hamsters; 100 mkg, 2 weeks",0.2 ± 0.2* umol/L
same,Creatinine,"Hyperlipidemic Hamsters; 100 mkg, 2 weeks",15.3 ± 3.2** umol/L
same,Glucose,"Hyperlipidemic Hamsters; 100 mkg, 2 weeks",5.0 ± 1.3 mmol/L
same,HDL-C,"Hyperlipidemic Hamsters; 100 mkg, 2 weeks",4.2 ± 0.5** mmol/L
same,TC,"Hyperlipidemic Hamsters; 100 mkg, 2 weeks",16.4 ± 5.8*** mmol/L
same,TG,"Hyperlipidemic Hamsters; 100 mkg, 2 weeks",6.7 ± 5.2* mmol/L
same,CPY7A mRNA expression in liver versus vehicle control,[2],2.7 fold
same,AUC(0-inf),in vivo; 15 mg/kg,914 ng·h/mL
same,AUC(0-t),in vivo; 15 mg/kg,889 ng·h/mL
same,Cmax,in vivo; 15 mg/kg,195 ng/mL
same,MRT inf,in vivo; 15 mg/kg,6.95 h
same,MRT last,in vivo; 15 mg/kg,6.06 h
same,Tmax,in vivo; 15 mg/kg,0.5 h
same,t1/2z,in vivo; 15 mg/kg,5.21 h
same,AUC(0-inf),in vivo; 30 mg/kg,2110 ng·h/mL
same,AUC(0-t),in vivo; 30 mg/kg,2020 ng·h/mL
same,Cmax,in vivo; 30 mg/kg,848 ng/mL
same,MRT inf,in vivo; 30 mg/kg,5.17 h
same,MRT last,in vivo; 30 mg/kg,3.81 h
same,Tmax,in vivo; 30 mg/kg,0.5 h
same,t1/2z,in vivo; 30 mg/kg,6.85 h
